# Source: patent US20200017496A1 (priority 2017, published 2020)
# Like-named read-outs stand apart in the source and are kept apart here.
# Tests used:
# Experiment in all cases: MIC of compounds alone and combined with antibacterials, broth microdilution (CLSI)
# Type in all cases: cell-based
# [1] = tested on: Citrobacter freundii (CFR) isolates; conditions: strain CFR UFR254
# Description: (§1) Method 2: MIC of Compounds Alone and Combined with Antibacterials Against Bacterial Isolates.
# (§2) Compounds of the present invention were assessed against genotyped bacterial strains (Table 3, 4) alone or in combination with an antibacterial (Table 2). […] Log phase bacterial suspensions were adjusted to a final density of 5·10^5 CFU/mL in cation-adjusted Mueller-Hinton broth (ca-MHB; Becton-Dickinson and Company) and added to each well (98 μL). Microplates were incubated for 16-20 h at 35° C. in ambient air. The MIC of the compounds was defined as the lowest concentration of said compounds that prevented bacterial growth as read by visual inspection. The MIC of ATB at each compound concentration was defined as the lowest concentration of ATB that prevented bacterial growth as read by visual inspection.
# [2] = tested on: Enterobacter aerogenes (EAE) isolates; conditions: for MIC: Klebsiella aerogenes, read-out: MIC
# Description: as §1, §2
# [3] = tested on: Morganella morganii (MMO) isolates; conditions: for MIC: Morganella morganii
# Description: as §1, §2
# [4] = tested on: Providencia stuartii (PST) isolates; conditions: for MIC: Providencia stuartii, read-out: MIC
# Description: as §1, §2
# [5] = tested on: Klebsiella pneumoniae (KPN) isolates
# Description: as §1, §2
smiles,measurement,setting,value
"C=CC1=C(C(=O)O)N2C(=O)[C@@H](NC(=O)/C(=N\OCC(=O)O)c3csc(N)n3)[C@H]2SC1 [FIX, Cefixime]",MIC ATB in combination,[1]; antibacterial combined with AF1 @ 4 μg/mL,0.5 µg/mL
same,MIC ATB in combination,[1]; antibacterial combined with AF1 @ 8 μg/mL,<=0.25 μg/mL
same,MIC ATB in combination,"[2]; EAE 49469, AF1 @ 4 μg/mL",32 µg/mL
same,MIC ATB in combination,"[2]; EAE 49469, AF1 @ 8 μg/mL",16 µg/mL
same,MIC ATB in combination,"[2]; EAE 200261, AF1 @ 4 μg/mL",32 µg/mL
same,MIC ATB in combination,"[2]; EAE 200261, AF1 @ 8 μg/mL",4 µg/mL
same,MIC ATB in combination,"[2]; EAE UFR199, AF1 @ 4 μg/mL",1 µg/mL
same,MIC ATB in combination,"[2]; EAE UFR199, AF1 @ 8 μg/mL",0.25 µg/mL
same,MIC ATB in combination,"[2]; EAE UFR201, AF1 @ 4 μg/mL",<=0.25 μg/mL
same,MIC ATB in combination,"[2]; EAE UFR201, AF1 @ 8 μg/mL",<=0.25 μg/mL
same,MIC ATB in combination,"[2]; EAE UFR202, AF1 @ 4 μg/mL",16 µg/mL
same,MIC ATB in combination,"[2]; EAE UFR202, AF1 @ 8 μg/mL",4 µg/mL
same,MIC ATB in combination,"[2]; EAE UFR213, AF1 @ 4 μg/mL",1 µg/mL
same,MIC ATB in combination,"[2]; EAE UFR213, AF1 @ 8 μg/mL",0.5 µg/mL
same,MIC,"[2]; EAE UFR199, alone",> 1020 µg/mL
same,MIC,"[2]; strain EAE 49469 (AmpC), ATB alone",> 128 µg/mL
same,MIC,"[2]; strain EAE 49469 (AmpC), CLA @ 4 μg/ml+ ATB",> 128 µg/mL
same,MIC,"[2]; strain EAE 200261 (TEM-x, AmpC), ATB alone",> 128 µg/mL
same,MIC,"[2]; strain EAE 200261 (TEM-x, AmpC), CLA @ 4 μg/ml+ ATB",> 128 µg/mL
same,MIC,"[2]; strain EAE UFR199 (TEM-1b, SHV-12, KPC-2, OXA-9), ATB alone",> 1020 µg/mL
same,MIC,"[2]; strain EAE UFR199 (TEM-1b, SHV-12, KPC-2, OXA-9), CLA @ 4 μg/ml+ ATB",16 µg/mL
same,MIC,"[2]; strain EAE UFR201 (TEM-1, SHV-12, CTX-M-15), ATB alone",> 128 µg/mL
same,MIC,"[2]; strain EAE UFR201 (TEM-1, SHV-12, CTX-M-15), CLA @ 4 μg/ml+ ATB",≤ 0.25 µg/mL
same,MIC,"[2]; strain EAE UFR202 (TEM-24), ATB alone",> 128 µg/mL
same,MIC,"[2]; strain EAE UFR202 (TEM-24), CLA @ 4 μg/ml+ ATB",> 128 µg/mL
same,MIC,"[2]; strain EAE UFR213 (TEM-24), ATB alone",> 128 µg/mL
same,MIC,"[2]; strain EAE UFR213 (TEM-24), CLA @ 4 μg/ml+ ATB",> 128 µg/mL
same,MIC ATB in combination,"[3]; MMO 200321, AF1 @ 4 μg/mL",4 µg/mL
same,MIC ATB in combination,"[3]; MMO 200321, AF1 @ 8 μg/mL",4 µg/mL
same,MIC ATB in combination,"[3]; MMO UFR144, AF1 @ 4 μg/mL",2 µg/mL
same,MIC ATB in combination,"[3]; MMO UFR144, AF1 @ 8 μg/mL",2 µg/mL
same,MIC ATB in combination,"[3]; MMO UFR240, AF1 @ 4 μg/mL",<=0.25 μg/mL
same,MIC ATB in combination,"[3]; MMO UFR240, AF1 @ 8 μg/mL",<=0.25 μg/mL
same,MIC ATB in combination,"[3]; MMO UFR241, AF1 @ 4 μg/mL",2 µg/mL
same,MIC ATB in combination,"[3]; MMO UFR241, AF1 @ 8 μg/mL",<=0.25 μg/mL
same,MIC ATB in combination,"[3]; MMO UFR242, AF1 @ 4 μg/mL",4 µg/mL
same,MIC ATB in combination,"[3]; MMO UFR242, AF1 @ 8 μg/mL",2 µg/mL
same,MIC ATB in combination,"[3]; MMO UFR243, AF1 @ 4 μg/mL",0.5 µg/mL
same,MIC ATB in combination,"[3]; MMO UFR243, AF1 @ 8 μg/mL",<=0.25 μg/mL
same,MIC ATB in combination,"[3]; MMO UFR244, AF1 @ 4 μg/mL",<=0.25 μg/mL
same,MIC ATB in combination,"[3]; MMO UFR244, AF1 @ 8 μg/mL",<=0.25 μg/mL
same,MIC ATB in combination,"[3]; MMO UFR245, AF1 @ 4 μg/mL",2 µg/mL
same,MIC ATB in combination,"[3]; MMO UFR245, AF1 @ 8 μg/mL",<=0.25 μg/mL
same,MIC ATB in combination,"[3]; MMO UFR246, AF1 @ 4 μg/mL",2 µg/mL
same,MIC ATB in combination,"[3]; MMO UFR246, AF1 @ 8 μg/mL",1 µg/mL
same,MIC ATB in combination,"[3]; MMO UFR247, AF1 @ 4 μg/mL",0.5 µg/mL
same,MIC ATB in combination,"[3]; MMO UFR247, AF1 @ 8 μg/mL",0.25 µg/mL
same,MIC,"[3]; strain MMO 200321 (TEM-1, CTX-M-15, OXA-1), ATB alone",> 128 µg/mL
same,MIC,"[3]; strain MMO 200321 (TEM-1, CTX-M-15, OXA-1), CLA @ 4 μg/ml+ ATB, read-out: MIC",32 µg/mL
same,MIC,"[3]; strain MMO UFR144 (TEM-1, CTX-M-15), ATB alone",> 128 µg/mL
same,MIC,"[3]; strain MMO UFR144 (TEM-1, CTX-M-15), CLA @ 4 μg/ml+ ATB, read-out: MIC",32 µg/mL
same,MIC,"[3]; strain MMO UFR240 (CTX-M-9), ATB alone, read-out: MIC",1 µg/mL
same,MIC,"[3]; strain MMO UFR240 (CTX-M-9), CLA @ 4 μg/ml+ ATB, read-out: MIC",8 µg/mL
same,MIC,"[3]; strain MMO UFR241 (TEM-1, CTX-M-15), ATB alone",> 128 µg/mL
same,MIC,"[3]; strain MMO UFR241 (TEM-1, CTX-M-15), CLA @ 4 μg/ml+ ATB, read-out: MIC",32 µg/mL
same,MIC,"[3]; strain MMO UFR242 (TEM-52), ATB alone, read-out: MIC",1020 µg/mL
same,MIC,"[3]; strain MMO UFR242 (TEM-52), CLA @ 4 μg/ml+ ATB, read-out: MIC",64 µg/mL
same,MIC,"[3]; strain MMO UFR243 (DHA-1), ATB alone, read-out: MIC",8 µg/mL
same,MIC,"[3]; strain MMO UFR243 (DHA-1), CLA @ 4 μg/ml+ ATB, read-out: MIC",32 µg/mL
same,MIC,"[3]; strain MMO UFR244 (DHA-1), ATB alone, read-out: MIC",4 µg/mL
same,MIC,"[3]; strain MMO UFR244 (DHA-1), CLA @ 4 μg/ml+ ATB, read-out: MIC",8 µg/mL
same,MIC,"[3]; strain MMO UFR245 (DHA-1), ATB alone, read-out: MIC",32 µg/mL
same,MIC,"[3]; strain MMO UFR245 (DHA-1), CLA @ 4 μg/ml+ ATB, read-out: MIC",64 µg/mL
same,MIC,"[3]; strain MMO UFR246 (DHA-1), ATB alone, read-out: MIC",32 µg/mL
same,MIC,"[3]; strain MMO UFR246 (DHA-1), CLA @ 4 μg/ml+ ATB, read-out: MIC",64 µg/mL
same,MIC,"[3]; strain MMO UFR247 (DHA-1), ATB alone, read-out: MIC",16 µg/mL
same,MIC,"[3]; strain MMO UFR247 (DHA-1), CLA @ 4 μg/ml+ ATB, read-out: MIC",32 µg/mL
same,MIC ATB in combination,"[4]; PST UFR94, AF1 @ 4 μg/mL",<=0.25 μg/mL
same,MIC ATB in combination,"[4]; PST UFR94, AF1 @ 8 μg/mL",<=0.25 μg/mL
same,MIC ATB in combination,"[4]; PST UFR95, AF1 @ 4 μg/mL",<=0.25 μg/mL
same,MIC ATB in combination,"[4]; PST UFR95, AF1 @ 8 μg/mL",<=0.25 μg/mL
same,MIC ATB in combination,"[4]; PST UFR235, AF1 @ 4 μg/mL",0.125 µg/mL
same,MIC ATB in combination,"[4]; PST UFR235, AF1 @ 8 μg/mL",0.063 µg/mL
same,MIC,"[4]; PST UFR235, alone",512 µg/mL
same,MIC,"[4]; strain PST UFR94 (CTX-M-14), ATB alone",0.5 µg/mL
same,MIC,"[4]; strain PST UFR94 (CTX-M-14), CLA @ 4 μg/ml+ ATB",2 µg/mL
same,MIC,"[4]; strain PST UFR95 (TEM-24), ATB alone",4 µg/mL
same,MIC,"[4]; strain PST UFR95 (TEM-24), CLA @ 4 μg/ml+ ATB",8 µg/mL
same,MIC,"[4]; strain PST UFR235 (VEB-1), ATB alone",512 µg/mL
same,MIC,"[4]; strain PST UFR235 (VEB-1), CLA @ 4 μg/ml+ ATB",8 µg/mL
same,MIC ATB in combination,[5],>128 µg/mL
same,MIC ATB in combination,"[5]; KPN 6299, AF1 @ 4 μg/mL",<=0.25 μg/mL
same,MIC ATB in combination,"[5]; KPN 6299, AF1 @ 8 μg/mL",<=0.25 μg/mL
same,MIC ATB in combination,"[5]; KPN 110376, AF1 @ 4 μg/mL",0.125 µg/mL
same,MIC ATB in combination,"[5]; KPN 110376, AF1 @ 8 μg/mL",0.125 µg/mL
same,MIC ATB in combination,"[5]; KPN 131119, AF1 @ 4 μg/mL",<=0.25 μg/mL
